Results from patent US20140249031A1, “MICELLE-COATED CRYSTALLINE PARTICLES” (SYNGENTA LIMITED, priority 2011, published 2014).

What was measured:
[1] = Visual release rate test of Bitrex in water; format: physicochemical; details: after 15 minutes; 0.4 mg agitated in 10 ml of water
Experimental: 0.4 mg of sample was agitated in 10 ml of water and observed over 8 hours.

[2] = UV/Vis release rate measurement of Bitrex in water; format: physicochemical; details: 100 mg in 40 ml water
Experimental: 2 ml of the mixture was removed at each time interval for analysis.

- visual release: state of sample in water [1]: fully dissolved
- % release of Bitrex relative to the total content ([2]; 5 minutes): 99.6%
- % release of Bitrex relative to the total content ([2]; 15 minutes): 99.8%
Structure (SMILES): CC[N+](CC)(CC(=O)Nc1c(C)cccc1C)Cc1ccccc1 [uncoated Bitrex, denatonium benzoate]
